Measurements from article PMC3023143 (Nature, 2011).

Legend:
β1AR-m23 = experiment: Ligand efficacy at β1AR-m23; type: cell-based, turkey (Meleagris gallopavo); settings: β1AR-m23, Supplementary Table 3
human β1AR = settings: no reference given; cited from earlier work

## CC(CCc1ccc(O)cc1)NCCc1ccc(O)c(O)c1 (centres unmarked) [Dobutamine, dobutamine]
β1AR-m23
  ligand efficacy class: partial agonists
Human β1AR
  ligand efficacy class: partial agonists
